Laboratory results taken from US20220236255A1, “Self-Contained Responsive Biological Systems and Methods” (Arizona Board of Regents on Behalf of the University of …, priority 2019, published 2022).
Read-outs that look alike come from different tables or passages of the source.

How the values were obtained:
[1] = system: SK-MEL-28 cells; assay: Modified MTT drug response assay, withaferin A, 72 hours; format: cell-based, human; conditions: WFA 72 hours, read-out: IC50 (concentration resulting in 50% of cell death)
Procedure: A modified MTT experiment was developed from CellTiter 96 NonRadioactive Cell Proliferation Assay kit (Promega). Treated leaves were cut into 1×1 cm sized pieces and fit to the bottom of an untreated 48-well plate. 0.75×0.75 cm inserts were placed in the well on the top of the leaf, cells were plated at 10,000 cells/insert and incubated at 37° C. with 5% CO2 atmosphere. After 24 hours, the inserts were removed and leaves with attached cells were cut and re-plated into non-treated 96-well plates. In parallel, cells were also directly seeded into a treated 96-well plate at a concentration of 5000 cells/well. The medium was refreshed every 72 hours. Tetrazolium component was added at day 1, 3, 5 and 7 and absorbance of formazan product was measured at 570 nm by using Epoch microplate spectrophotometer (Biotek Instruments). For the drug response assay, withaferin A (WFA) was added at concentrations ranging from 0.156 to 40 μM and incubated for 72 hours prior to the addition of the […]. […]
Microphthalmia-associated Transcription Factor (MITF) is a lineage-determining transcription factor critical for regulation of the melanocytic lineage during development and implicated as both a melanoma tumor suppressor and oncogene. […] Gene expression was then analyzed by qRT-PCR for MITF and three genes of the MITF-high expression signature (SOX10, MLANA and TYR). […]

[2] = system: Glast, SOX2 and Nestin mRNA in U87/NPC organoids; assay: qRT-PCR of biomarker mRNA in everolimus-treated irradiated organoids; format: cell-based, human; conditions: irradiated organoids pre-treated with everolimus; qRT-PCR at day 10 after irradiation
Procedure: (§1) Thus, the effect of a rapamycin analog, everolimus, on human cells was investigated using an in vitro organoids model. GFP-tagged glioblastoma U87 cells were cultured in presence of RFP-tagged neural progenitor cells (NPCs), differentiated from dermal fibroblasts reprogrammed to induced pluripotent stem cells, to form organoids. The organoids were exposed to 10 nM everolimus for 24 hours before 2 Gy-irradiation. […] This has been confirmed by qRT-PCR where Glast mRNA level (glioblastoma biomarker) decreases whereas SOX2 and Nestin mRNA levels (NPCs biomarkers) increase in irradiated organoids pre-treatment with everolimus (FIGS. 27A-27C).

[3] = system: RFP-transfected dermal fibroblasts spheroids; assay: Growth of irradiated dermal fibroblast spheroids pre-treated with everolimus; format: cell-based; conditions: everolimus 24 h before 4 Gy-irradiation; growth monitored for 8 days
Procedure: FIG. 33 RFP-transfected dermal fibroblasts spheroids have been exposed to different concentrations of everolimus 24 h before 4 Gy-irradiation and their growth monitored for 8 days.

[4] = system: organoids of GFP-tagged glioblastoma U87 cells and RFP-tagged neural progenitor cells (NPCs); assay: Organoid fluorescence (cell viability) after everolimus pre-treatment and irradiation; format: cell-based, human; conditions: 10 nM everolimus for 24 hours before 2 Gy-irradiation; over one week
Procedure: as §1

| Compound | IC50 ([1]; SK-MEL-28 cells seeded on decellularized spinach leaf scaffold) [µM] | IC50 ([1]; SK-MEL-28 cells seeded on stiff substrate (TCPS)) [µM] | Glast mRNA level (glioblastoma biomarker) [2] | Nestin mRNA level (NPCs biomarker) [2] | SOX2 mRNA level (NPCs biomarker) [2] | growth of irradiated spheroids compared to non-pretreated spheroids [3] | GFP fluorescence intensity (U87 cells) compared to vehicle-treated organoids after irradiation [4] | RFP fluorescence signal (NPCs) compared to vehicle-treated organoids after irradiation [4] |
| --- | --- | --- | --- | --- | --- | --- | --- | --- |
| CC1=C(CO)C(=O)O[C@@H]([C@@H](C)[C@H]2CC[C@H]3[C@@H]4C[C@H]5O[C@]56[C@@H](O)C=CC(=O)[C@]6(C)[C@H]4CC[C@]23C)C1 [WFA, withaferin A] | 5.2 | 1.1 | – | – | – | – | – | – |
| CO[C@H]1C[C@@H]2CC[C@@H](C)[C@@](O)(O2)C(=O)C(=O)N2CCCC[C@H]2C(=O)O[C@H]([C@H](C)C[C@@H]2CC[C@@H](OCCO)[C@H](OC)C2)CC(=O)[C@H](C)/C=C(\C)[C@@H](O)[C@@H](OC)C(=O)[C@H](C)C[C@H](C)/C=C/C=C/C=C/1C [everolimus] | – | – | decreases | increase | increase | increased | decreases | increases |
